Data set [1] concerns monocytes. Put plainly: Cytokine multiplex analysis of supernatants of differentiated monocytes. It counts as cell-based, human. Set-up: GM-CSF release / MIP-1α release / MIP-1β release / MIG release / RANTES release / MCP-1 release / IL-2R release / VEGF release / G-CSF release / HGF release / FGF-Basic release / IL-4 release / IL-7 release / IFN-α release / IFN-γ release: unit not given here. The following applies: for FGF-Basic release / G-CSF release / HGF release / IFN-α release / IFN-γ release / IL-2R release / IL-4 release / IL-7 release / MCP-1 release / MIG release / MIP-1α release / MIP-1β release / RANTES release / VEGF release / GM-CSF release: supernatant, monocytes differentiated 6 days, Mean ± SEM. The text has this:
(§1) This study was approved by the Institutional Human Subject's Review Board (City of Hope National Medical Center). Peripheral blood mononuclear cells (PBMCs) were isolated from citrated blood by centrifugation over Ficoll-Paque Plus (GE healthcare biosciences, Pittsburgh, Pa., USA) density gradient. Monocytes were separated using EasySep® Human Monocyte Enrichment Kit (StemCell Technologies Inc, Vancouver, Canada) from PBMCs. The purified monocytes were stained with anti-CD14-FITC and checked by using flow cytometry FACSCanton II. Monocytes with >95% purity were suspended at 1×10^6 cells/mL in RPMI 1640 medium supplement with 10% FBS (FBS contained <5 pg/100 mL LPS).
(§2) After isolation of monocytes as described in the examples above, monocytes were treated with serial dose of LL-37 (0.625 μM, 1.25 μM, 2.5 μM, 5 μM, or 10 μM) for differentiation for 3 days, 6 days, 14 days or more. After incubating for 6 days, cultures were fed every 2 days by removing half of the supernatant and adding fresh medium. For macrophage differentiation, monocytes were treated with medium only (Falzoni et al. 1995), with 100 ng/mL LPS (Palucka et al. 1999), 10 ng/mL GM-CSF (macrophage 1, Mφ1), or 50 ng/mL M-CSF (macrophage 2, Mφ2) for 6 days (Verreck et al. 2004). Monocyte-derived DCs were generated with 1,000 U/mL GM-CSF and 500 units/mL IL-4 (Verreck et al. 2004) or GM-CSF and 1000 U/mL IFNα (Tosello et al. 2009). Osteoclasts were differentiated from monocytes in the presence of RANKL and M-CSF (both at 25 ng/mL) (Sorensen et al. 2007).
Fresh monocytes were plated at 1×10^6 cells/mL in RPMI 1640 medium containing 10% FBS in 48-well plates and incubated with medium only, LL-37, LPS, GM-CSF, M-CSF, M-CSF/RANKL for 6 days, or/and 14 days and 21 days. Supernatant was collected and analyzed using the Human Cytokine 30-Plex antibody bead kit from Biosource International Inc., including IL-1-β, IL-1 ra, IL-2, IL-2R, IL-4, IL-5, IL-6, IL-7, IL-8, IL-10, IL-12, IL-13, IL-15, IL-17, TNFα, IFNα, IFNγ, G-CSF, GM-CSF, MIP-1α, MIP-1β, MIG, RANTES, eotaxin, MCP-1, IP-10, VEGF, HGF, FGF-basic, and […]. Cytokine concentrations were calculated using Bio-Plex Manager 3.0 software with an eight-parameter, curve-fitting algorithm applied for standard curve calculations (Zhang et al. 2008b).

The test system of data set [2] is monocytes. Put plainly: Bone resorption assay on BioCoat Osteologic Discs (phase contrast, SEM, von Kossa). It counts as cell-based, human. The protocol:
The resorbing activity was evaluated by using BioCoat™ Osteologic™ Discs purchased from BD Biosciences as a mineral matter in 24-well plate. […] The plates were washed by rinsing distilled water and pit formation was observed by light microscopy (Yuasa et al. 2007) and scanning electron microscopy (SEM). […]
BioCoat™ Osteologic™ Discs fixed in 2.5% glutaraldehyde in 0.1 M phosphate buffer, pH 7.2 (buffer A) for 1 hour from bone resorption assay were washed three times in buffer A, postfixed with 1% osmium tetroxide in buffer A, then dehydrated in graded ethanol. The 100% ethanol solution was then replaced by propylene oxide, and the cells were embedded in Eponate. Thin sections were stained with uranyl acetate and lead citrate and examined with a FEI TECNAI G2 electron microscope.
Discs were photographed using phase contrast microscopy (magnification 200×).

Data set [3] relates to monocytes. Put plainly: Monocyte differentiation and survival (morphology, cell number). It counts as cell-based, human.
From the text: as §1
Negatively isolated monocytes at the concentration of 1×10^6/mL were incubated in […] medium with 10% FBS in the presence or absence of LL-37. […] The maximum effect occurred at the dose of 5 μM LL-37 after which higher doses (≧10 μM) led to decreased cell numbers due to toxicity of LL-37 >10 μM (Zhang et al. 2008a; Johansson et al. 1998). After 14 days, the cell number of untreated controls decreased further, but the LL-37-differentiated monocytes survived with an apparent further increase in the diameter of the round adherent cells. […] There was no evidence of cell-cell fusion in the creation of giant cells. Together these analyses indicate that LL-37 can progressively differentiate monocytes into large round adherent cells at early times with giant cells and irregular shaped cells appearing at later times.
as §2
Monocytes were plated in culture media and treated with LL-37 (dose shown in the figures), LPS (100 ng/mL), GM-CSF (10 ng/mL), M-CSF (50 ng/mL), GM-CSF (1,000 U/mL)/IL-4 (500 units/mL), GM-CSF (1,000 U/mL)/IFNα (1,000 U/mL), or MCSF/RANKL (both at 25 ng/mL) and photographed with the Leica DMI 3000B (Leica Microsystems Inc, Bonnockburn, Ill. 60015) inverted microscope.

For data set [4], the system named is monocytes. Briefly: Phagocytosis of fluorescent labeled latex beads. It counts as cell-based, human. The following applies: 6-day differentiated cells, beads 1:500, 1 hour at 37° C. The protocol:
6-day LL-37-, medium-, LPS-, GM-CSF-, and M-CSF-differentiated monocytes (1×10^6/mL) in tissue culture medium supplemented with 10% FBS in a 24-well plate were mixed with fluorescent labeled latex beads at a multiplicity ratio of 1:500, and incubated for 1 hour at 37° C. After being washed three times, cells were analyzed using FACSCanton II and Flowjo software.

In data set [5] the test system is monocytes. The following applies: cited from earlier work.
The test system of data set [6] is monocytes. Put plainly: Flow cytometry of cell surface markers. The following applies: 6 days. The format is cell-based, human. The text has this: For cell surface staining, cells were washed with PBS, blocked with 10% human serum in PBS, stained with isotype controls and antibodies described in the figures, washed 3 times with 1% BSA PBS, and analyzed with a FACSCanton II. For intracellular staining, cells were washed with PBS, fixed with 1% paraformaldehyde in PBS, permeabilized in PBS buffer containing 0.1% saponin (Sigma-Aldrich) and 2% BSA, and stained with primary isotype controls and antibodies shown in the figures. After washing with PBS containing 1% BSA and 0.1% saponin, cells were stained with secondary Alexa 488 conjugated antibodies. Stained cells were assessed with a FACSCanton II cytometer, and analyzed using Flowjo software.

In data set [1], “GM-CSF: Recombinant human GM-CSF, produces macrophage 1 (Mφ1) [reference compound]” gave an FGF-Basic release of 10.85 ± 0.22, a G-CSF release of 74.85 ± 2.60, an HGF release of 505.18 ± 118.32 and an IFN-α release of 14.33 ± 1.27. Further, in data set [1], the IFN-γ release came out at 13.5 ± 0.47, the IL-2R release was found to be 47.16 ± 1.23, the IL-4 release is 11.82 ± 0.98 and the IL-7 release is on record as 26.89 ± 0.16. In data set [1], this molecule returned an MCP-1 release of 15362.1 ± 7902.6, an MIG release of 17.21 ± 1.30, an MIP-1α release of 72.20 ± 6.18 and an MIP-1β release of 70.42 ± 19.71. In data set [1], this molecule showed an RANTES release of 5.42 ± 1.85 and a VEGF release of 15.88 ± 2.99.

As for LL-37, the “structures formed on Osteologic Discs” value in data set [2] (3 weeks, cells removed by bleach, LL-37 5 μM, M-CSF/RANKL both 25 ng/mL) is recorded as “formed refractile specks on the discs instead of classical absorption pits”. Moreover, the “von Kossa staining of granules (mineralization)” value in data set [2] (5 weeks of co-culture) was “positive von Kossa staining”. Besides, in data set [3], the “doses that led to decreased cell numbers” value is at least 10 µM. Besides, the “cell number versus untreated controls” value in data set [3] (5 μM, 6 days) is recorded as “significantly higher than untreated controls”. For the same molecule, the cell morphology result in data set [3] (6 days of treatment) was “differentiated into large round adherent cells”. Besides, the “survival in terms of cell numbers” value in data set [3] (after 28 days, versus M-CSF/RANKL-derived osteoclasts) was “survive better than M-CSF/RANKL-derived osteoclasts”. For the same molecule, the “dose of maximum effect” value in data set [3] (monocyte differentiation and cell number) amounted to 5 µM. Moreover, the phagocytic function result in data set [4] is “retain their phagocytic function”. For the same molecule, the “toxicity of LL-37” value in data set [5] was over 10 µM. In data set [1] (6-day cells, 100 ng/mL LPS 18 hours, versus M-CSF/RANKL-differentiated monocytes), the “IL-1ra, IL-10, IL-12, IP-10, GM-CSF production in response to LPS” value was “increased production”. In addition, in data set [1] (6 days), the “IL-1ra release versus other macrophage lineages” value is listed as “highest levels”, the “IL-1β release versus other macrophage lineages” value was “lowest level”, the “IL-6 release versus macrophages generated by the other methods” value was “significantly less” and the “IP-10 release versus macrophages generated by the other methods” value is given as “increased”. In addition, in data set [1] (all time points analyzed), the “IL-1ra release versus osteoclasts” value is “higher levels” and the “IL-1β, IL-6, MCP-1 release versus osteoclasts” value is reported as “lower levels”. For the same molecule, in data set [1], the FGF-Basic release is listed as 10.28 ± 0.66, the G-CSF release came to 51.79 ± 3.38, the GM-CSF release amounted to 3.96 ± 0.30 and the HGF release is recorded as 772.94 ± 126.71. Moreover, in data set [1], the IFN-α release is 9.93 ± 0.14, the IFN-γ release is recorded as 12.13 ± 0.88, the IL-2R release is 32.38 ± 7.04 and the IL-4 release came to 7.16 ± 0.59. Moreover, in data set [1], the IL-7 release is reported as 11.93 ± 1.96, the MCP-1 release was found to be 7720.3 ± 972.2, the MIG release was determined as 7.16 ± 1.31 and the MIP-1α release is recorded as 53.17 ± 12.97. In data set [1], this molecule had an MIP-1β release of 72.41 ± 9.86, an RANTES release of 10.24 ± 3.87 and a VEGF release of 3.88 ± 0.41. Besides, in data set [6], the “expression of CD163, DC-SIGN, CD14 versus other macrophage lineages” value is reported as “lower levels”.

B1: M-CSF: Recombinant human M-CSF, produces macrophage 2 (Mφ2) (protein, UniProt P09603 33-554, looked up)
Macrophage colony-stimulating …: EEVSEYCSHMIGSGHLQSLQRLIDSQMETSCQITFEFVDQEQLKDPVCYLKKAFLLVQDIMEDTMRFRDNTPNAIAIVQLQELSLRLKSCFTKDYEEHDKACVRTFYETPLQLLEKVKNVFNETKNLLDKDWNIFSKNCNNSFAECSSQDVVTKPDCNCLYPKAIPSSDPASVSPHQPLAPSMAPVAGLTWEDSEGTEGSSLLPGEQPLHTVDPGSAKQRPPRSTCQSFEPPETPVVKDSTIGGSPQPRPSVGAFNPGMEDILDSAMGTNWVPEEASGEASEIPVPQGTELSPSRPGGGSMQTEPARPSNFLSASSPLPASAKGQQPADVTGTALPRVGPVRPTGQDWNHTPQKTDHPSALLRDPPEPGSPRISSLRPQGLSNPSTLSAQPQLSRSHSSGSVLPLGELEGRRSTRDRRSPAEPEGGPASEGAARPLPRFNSVPLTDTGHERQSEGSFSPQLQESVFHLLVPSVILVLLAVGGLLFYRWRRRSHQEPQRADSPLEQPEGSPLTQDDRQVELPV
In the case of B1, in data set [1], the FGF-Basic release was 11.54 ± 0.31, the G-CSF release is 75.71 ± 5.78, the GM-CSF release worked out at 25.2 ± 5.51 and the HGF release is listed as 664.33 ± 112.85. Further, in data set [1], the IFN-α release is on record as 19.83 ± 1.19, the IFN-γ release is reported as 14.67 ± 1.06, the IL-2R release came to 44.62 ± 4.89 and the IL-4 release came out at 11.07 ± 0.95. Also, in data set [1], the IL-7 release came to 24.83 ± 1.68, the MCP-1 release was found to be 34236.5 ± 1606.8, the MIG release worked out at 15.39 ± 2.01 and the MIP-1α release was 41.62 ± 2.63. In data set [1], the MIP-1β release is given as 47.26 ± 1.46, the RANTES release is 10.19 ± 1.38 and the VEGF release is 22.12 ± 1.39.

The values are drawn from patent US9005969B2, “Generation of novel bone forming cells (monoosteophils) from LL-37 treated monocytes” (City of Hope, priority 2010, dated 2015).
